The source made the active and inactive calls. The rule behind the calls is not given here.
Tests used:
Type in all cases: cell-based
[1] = molecular target: T1, Glucocorticoid receptor (Homo sapiens) (UniProt P04150); assay: Transrepression of human GRalpha expressed in HEK293 cells co-expressing pGL4.32 assessed as inhibition of TNFalpha-stimulated NF-kB activity at 30 uM preincubated for 4 hrs followed by TNFalpha addition measured after 3 hrs by luciferase reporter gene assay relative to control
T1 sequence (whole entry): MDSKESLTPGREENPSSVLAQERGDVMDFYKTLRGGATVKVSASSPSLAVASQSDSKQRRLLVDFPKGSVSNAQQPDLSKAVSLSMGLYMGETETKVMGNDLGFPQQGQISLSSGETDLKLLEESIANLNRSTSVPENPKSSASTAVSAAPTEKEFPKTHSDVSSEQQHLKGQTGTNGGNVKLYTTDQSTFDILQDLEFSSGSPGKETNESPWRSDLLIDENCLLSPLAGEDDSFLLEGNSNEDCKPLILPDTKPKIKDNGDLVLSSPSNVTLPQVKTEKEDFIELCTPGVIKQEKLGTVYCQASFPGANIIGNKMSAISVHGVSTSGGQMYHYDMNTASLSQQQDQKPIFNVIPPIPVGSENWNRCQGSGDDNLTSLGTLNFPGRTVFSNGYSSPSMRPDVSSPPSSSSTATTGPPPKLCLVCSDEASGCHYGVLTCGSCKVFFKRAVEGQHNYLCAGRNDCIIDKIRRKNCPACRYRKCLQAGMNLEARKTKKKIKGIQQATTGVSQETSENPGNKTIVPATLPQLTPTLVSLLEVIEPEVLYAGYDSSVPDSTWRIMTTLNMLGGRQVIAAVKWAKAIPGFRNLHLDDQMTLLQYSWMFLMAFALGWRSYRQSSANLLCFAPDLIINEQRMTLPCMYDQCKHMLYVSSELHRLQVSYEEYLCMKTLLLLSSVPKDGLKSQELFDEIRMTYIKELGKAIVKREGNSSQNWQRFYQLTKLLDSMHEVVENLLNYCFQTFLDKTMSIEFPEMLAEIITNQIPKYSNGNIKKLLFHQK

[2] = molecular target: T2, Estrogen receptor (Homo sapiens) (UniProt P03372); assay: Antagonist activity at human GAL4-fused ERalpha LBD expressed in HEK293 cells at 30 uM after 24 hrs by luciferase reporter gene assay
T2 sequence (whole entry): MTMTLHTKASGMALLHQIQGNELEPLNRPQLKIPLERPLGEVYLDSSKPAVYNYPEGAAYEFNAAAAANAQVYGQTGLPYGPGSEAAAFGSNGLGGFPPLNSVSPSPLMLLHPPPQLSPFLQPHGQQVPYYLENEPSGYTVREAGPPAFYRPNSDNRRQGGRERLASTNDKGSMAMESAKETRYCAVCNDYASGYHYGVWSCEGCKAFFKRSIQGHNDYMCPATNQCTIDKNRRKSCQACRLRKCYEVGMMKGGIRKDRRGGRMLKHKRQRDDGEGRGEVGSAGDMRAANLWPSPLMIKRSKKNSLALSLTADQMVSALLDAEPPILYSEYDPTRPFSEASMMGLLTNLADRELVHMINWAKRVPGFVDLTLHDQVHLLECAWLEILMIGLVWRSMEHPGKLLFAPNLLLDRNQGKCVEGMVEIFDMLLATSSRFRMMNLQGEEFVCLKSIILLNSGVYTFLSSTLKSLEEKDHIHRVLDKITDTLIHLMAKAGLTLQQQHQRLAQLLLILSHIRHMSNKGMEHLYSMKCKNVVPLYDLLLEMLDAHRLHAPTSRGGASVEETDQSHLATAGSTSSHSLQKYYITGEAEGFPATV

Glucocorticoid receptor [3] = molecular target: T3, Glucocorticoid receptor (Homo sapiens, UniProt P04150); assay: Transactivation of human GRalpha expressed in HEK293 cells after 24 hrs by luciferase reporter gene assay; conditions: hek293, 24 h
T3 sequence (P04150 whole entry): T1 sequence (whole entry)

[4] = molecular target: T4, Androgen receptor (Homo sapiens) (UniProt P10275); assay: Antagonist activity at human AR expressed in HEK293 cells at 30 uM after 24 hrs by luciferase reporter gene assay
T4 sequence (whole entry): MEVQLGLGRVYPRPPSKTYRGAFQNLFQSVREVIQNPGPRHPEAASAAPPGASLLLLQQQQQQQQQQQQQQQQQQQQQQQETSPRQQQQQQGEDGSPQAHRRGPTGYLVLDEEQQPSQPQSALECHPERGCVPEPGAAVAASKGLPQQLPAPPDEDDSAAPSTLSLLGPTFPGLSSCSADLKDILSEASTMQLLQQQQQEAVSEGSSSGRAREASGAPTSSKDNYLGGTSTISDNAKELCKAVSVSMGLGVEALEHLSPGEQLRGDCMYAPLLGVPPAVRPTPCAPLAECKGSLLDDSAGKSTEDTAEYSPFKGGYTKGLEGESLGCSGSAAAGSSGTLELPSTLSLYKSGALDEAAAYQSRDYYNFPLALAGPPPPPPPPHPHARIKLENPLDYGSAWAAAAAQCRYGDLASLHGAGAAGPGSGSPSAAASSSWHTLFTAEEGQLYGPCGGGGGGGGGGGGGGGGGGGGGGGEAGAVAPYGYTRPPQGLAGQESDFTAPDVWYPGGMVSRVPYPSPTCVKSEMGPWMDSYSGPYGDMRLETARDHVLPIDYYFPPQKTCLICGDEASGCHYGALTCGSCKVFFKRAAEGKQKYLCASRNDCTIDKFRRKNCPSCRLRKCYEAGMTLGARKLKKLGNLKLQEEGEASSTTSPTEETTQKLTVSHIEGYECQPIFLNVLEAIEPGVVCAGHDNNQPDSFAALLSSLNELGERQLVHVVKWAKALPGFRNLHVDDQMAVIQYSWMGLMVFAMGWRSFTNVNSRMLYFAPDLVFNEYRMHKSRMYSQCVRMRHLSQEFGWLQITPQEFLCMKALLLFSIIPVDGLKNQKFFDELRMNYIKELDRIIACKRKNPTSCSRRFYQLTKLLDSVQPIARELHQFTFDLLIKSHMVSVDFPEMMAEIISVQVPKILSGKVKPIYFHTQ

Glucocorticoid receptor [5] = molecular target: T3, Glucocorticoid receptor; assay: Antagonist activity at human GRalpha expressed in HEK293 cells assessed as inhibition of dexamethasone-induced response after 24 hrs by luciferase reporter gene assay
[6] = molecular target: Estrogen receptor beta (Homo sapiens) (UniProt Q92731); assay: Antagonist activity at human GAL4-fused ERbeta LBD expressed in HEK293 cells at 30 uM after 24 hrs by luciferase reporter gene assay
Progesterone receptor = molecular target: T5, Progesterone receptor (Homo sapiens, UniProt P06401); assay: Antagonist activity at PR in human T47D cells assessed as inhibition of progesterone-induced response after 24 hrs by alkaline phosphatase assay
T5 sequence (P06401 whole entry): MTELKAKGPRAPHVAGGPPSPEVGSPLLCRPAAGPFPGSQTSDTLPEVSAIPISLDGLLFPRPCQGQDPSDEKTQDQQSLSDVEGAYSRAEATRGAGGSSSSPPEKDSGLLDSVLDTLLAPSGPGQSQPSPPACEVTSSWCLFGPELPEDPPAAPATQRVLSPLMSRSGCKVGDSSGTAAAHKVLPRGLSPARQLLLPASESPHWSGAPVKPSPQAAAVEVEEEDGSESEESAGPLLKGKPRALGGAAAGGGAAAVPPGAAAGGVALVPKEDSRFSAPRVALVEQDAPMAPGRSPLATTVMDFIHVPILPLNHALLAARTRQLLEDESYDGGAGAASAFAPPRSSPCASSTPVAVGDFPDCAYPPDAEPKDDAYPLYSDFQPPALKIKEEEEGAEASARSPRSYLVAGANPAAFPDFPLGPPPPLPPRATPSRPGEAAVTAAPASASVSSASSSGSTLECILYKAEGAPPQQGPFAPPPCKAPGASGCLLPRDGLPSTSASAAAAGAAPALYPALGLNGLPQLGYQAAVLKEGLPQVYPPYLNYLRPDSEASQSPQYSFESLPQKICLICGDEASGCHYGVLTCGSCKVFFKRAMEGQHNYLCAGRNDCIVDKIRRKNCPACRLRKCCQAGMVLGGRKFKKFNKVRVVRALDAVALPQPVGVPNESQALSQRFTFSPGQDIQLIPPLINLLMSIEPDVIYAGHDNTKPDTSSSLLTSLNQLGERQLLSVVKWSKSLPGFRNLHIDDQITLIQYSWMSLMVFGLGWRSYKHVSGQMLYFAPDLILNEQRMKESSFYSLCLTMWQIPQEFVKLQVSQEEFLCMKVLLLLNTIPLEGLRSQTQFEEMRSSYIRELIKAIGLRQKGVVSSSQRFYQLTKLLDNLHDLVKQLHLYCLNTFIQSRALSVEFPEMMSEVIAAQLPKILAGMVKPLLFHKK

Sequence of Estrogen receptor beta (Homo sapiens) (Q92731 whole entry, the tested form may be a part): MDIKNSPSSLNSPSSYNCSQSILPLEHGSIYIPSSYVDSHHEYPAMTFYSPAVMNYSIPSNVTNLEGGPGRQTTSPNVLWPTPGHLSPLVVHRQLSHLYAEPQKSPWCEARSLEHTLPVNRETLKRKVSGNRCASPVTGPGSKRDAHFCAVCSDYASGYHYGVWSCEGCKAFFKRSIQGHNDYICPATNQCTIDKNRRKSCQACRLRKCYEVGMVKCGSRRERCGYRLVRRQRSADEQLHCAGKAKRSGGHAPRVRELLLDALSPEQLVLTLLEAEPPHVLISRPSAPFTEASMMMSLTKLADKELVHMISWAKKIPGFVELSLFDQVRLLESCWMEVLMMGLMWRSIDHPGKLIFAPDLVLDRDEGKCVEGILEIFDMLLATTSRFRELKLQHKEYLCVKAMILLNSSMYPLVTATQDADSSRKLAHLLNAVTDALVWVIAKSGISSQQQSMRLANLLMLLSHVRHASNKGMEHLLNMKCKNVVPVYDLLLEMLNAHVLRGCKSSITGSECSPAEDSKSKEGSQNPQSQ

Question: With `N#Cc1ccc(S(=O)(=O)N(Cc2ccccc2)c2ccc(Oc3ccccc3)cc2)cc1` as the compound, how does the inhibition [1] read?
Answer: inactive

Question: What about the inhibition [2] of the same compound?
Answer: inactive

Question: And the Activity (Glucocorticoid receptor [3])?
Answer: Not Active

Question: And the inhibition [4]?
Answer: inactive

Question: And the IC50 (Glucocorticoid receptor [5])?
Answer: 1.43 µM

Question: What about the inhibition [6] of the same compound?
Answer: inactive

Question: And the IC50 (Progesterone receptor)?
Answer: 8 µM
